From PubChem BioAssay (NCI)
Where “and” joins values, the source holds several entries; their conditions need not be identical. Equal values may be shown once.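 Following 48 hours of exposure in 96-well plates, responses at five concentrations were used to interpolate endpoints linearly. GI50: concentration for 50% inhibition of growth. The concentration for full growth arrest is given as TGI.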

Key:
Assay in all cases: NCI-60 cell line screen, 48 h
A498 renal = test system: A498 renal
A549 NSCLC = test system: A549 NSCLC
COLO 205 colon = test system: COLO 205 colon
HCT-15 colon = test system: HCT-15 colon
K-562 leukemia = test system: K-562 leukemia
NCI/ADR-RES ovarian = test system: NCI/ADR-RES ovarian
SK-MEL-2 melanoma = test system: SK-MEL-2 melanoma
SNB-75 CNS = test system: SNB-75 CNS
SR leukemia = test system: SR leukemia
UACC-62 melanoma = test system: UACC-62 melanoma

SMILES | GI50 (A498 renal) | TGI (A498 renal) | GI50 (A549 NSCLC) | TGI (A549 NSCLC) | GI50 (COLO 205 colon) | TGI (COLO 205 colon) | GI50 (HCT-15 colon) | TGI (HCT-15 colon) | GI50 (K-562 leukemia) | TGI (K-562 leukemia) | GI50 (NCI/ADR-RES ovarian) | TGI (NCI/ADR-RES ovarian) | GI50 (SK-MEL-2 melanoma) | TGI (SK-MEL-2 melanoma) | GI50 (SNB-75 CNS) | TGI (SNB-75 CNS) | GI50 (SR leukemia) | TGI (SR leukemia) [µM] | GI50 (UACC-62 melanoma) | TGI (UACC-62 melanoma)
CC(=O)c1cc2c(o1)C(=O)c1ccccc1C2=O | 0.682 µM and 1.37 µM | 1.48 µM and 2.69 µM | 0.217 µM and 0.208 µM | 0.453 µM and 0.434 µM | 0.192 µM and 1.72 µM | 0.374 µM and 3.44 µM | 0.166 µM and 0.179 µM | 0.365 µM and 0.398 µM | 0.284 µM and 0.311 µM | 0.795 µM and 1.53 µM | 0.341 µM and 0.329 µM | 1.81 µM and 1.47 µM | 0.42 µM and 0.548 µM | 1.29 µM and 2 µM | 0.181 µM and 0.195 µM | 0.328 µM and 0.376 µM | 0.299 µM and 0.308 µM | 5.36 | 0.229 µM and 0.178 µM | 0.476 µM and 0.335 µM
Nc1nccc2c1ccn2-c1ccc(NC(=O)c2ccc(N3CCOCC3)c(C(F)(F)F)c2)cc1 | 0.402 µM | 2.94 µM | 1.39 µM | 15.3 µM | 0.297 µM | 0.871 µM | 0.811 µM | 10.5 µM | 0.687 µM | > 100 µM | 4.87 µM | 50.9 µM | 1.11 µM | 5.49 µM | 0.246 µM | 1.38 µM | 0.684 µM | > 100 | 0.337 µM | 1.19 µM
CC(CC(=O)O)C(C(=O)O)C(=O)O (configuration not stated) | – | > 100 µM | – | > 100 µM | – | > 100 µM | – | > 100 µM | – | > 100 µM | – | > 100 µM | – | > 100 µM | – | > 100 µM | – | > 100 | – | > 100 µM
CCCn1c(N)c(C(=O)N/N=C(/C)c2cc3cccc(OC)c3o2)sc1=S | 65.4 µM | > 100 µM | 12.5 µM | > 100 µM | 56.7 µM | > 100 µM | 22.1 µM | > 100 µM | 18.3 µM | > 100 µM | 18.6 µM | > 100 µM | 53.3 µM | > 100 µM | 30.1 µM | 82.3 µM | 8.66 µM | > 100 | 34.6 µM | > 100 µM
Nc1nc(N)c(N=Nc2ccc([As](=O)(O)O)cc2)c(=O)[nH]1 | – | > 100 µM | – | > 100 µM | – | > 100 µM | – | > 100 µM | – | > 100 µM | – | > 100 µM | – | > 100 µM | – | > 100 µM | – | > 100 | – | > 100 µM
C=CCc1cccc(/C=N/NC(=O)CN2CCN(Cc3ccccc3)CC2)c1O | 4.86 µM | 18.2 µM | 3.34 µM | 16.4 µM | 2.22 µM | 13.9 µM | 0.693 µM | 15.1 µM | 1.87 µM | 11 µM | 0.92 µM | 11.9 µM | 2.31 µM | 11.5 µM | 2.57 µM | 12.9 µM | 0.772 µM | 4.24 | 3.28 µM | 12.8 µM
N#Cc1c(-c2ccc(F)cc2)c(-c2ccc(F)cc2)nn(CCO)c1=O | – | > 54.2 µM | – | > 100 µM | – | 2.44 µM | – | 8.6 µM | – | > 100 µM | – | 22.5 µM | – | – | – | 16.9 µM | – | > 100 | – | > 77 µM
COc1cc(C2c3cc4c(cc3C(O)C(CO)C2CO)OCO4)cc(OC)c1OC (configuration not stated) | 0.321 µM | – | 1.64 µM | > 100 µM | 0.725 µM | 5.76 µM | 4.41 µM | > 100 µM | 0.432 µM | > 100 µM | 21.5 µM | > 100 µM | – | > 100 µM | 0.594 µM | > 100 µM | 0.342 µM | > 48.5 | 0.534 µM | > 100 µM
O=C(CC(O)(C(F)(F)F)C(F)(F)F)c1cc(CC(=O)C(O)(C(F)(F)F)C(F)(F)F)cc(CC(=O)C(O)(C(F)(F)F)C(F)(F)F)c1 | – | 5.43 µM | – | 5.62 µM | – | 3.06 µM | – | > 8.79 µM | – | > 10 µM | – | > 6.65 µM | – | 3.71 µM | – | 6.73 µM | – | > 10 | – | 4.11 µM
O=c1cc(-c2ccccc2)[nH]c2c(S)cccc12 | – | – | – | > 100 µM | – | > 100 µM | – | > 100 µM | – | > 100 µM | – | > 100 µM | – | – | – | > 100 µM | – | > 100 | – | > 100 µM
Cc1ccc(-c2nc3ccc([N+](=O)[O-])cc3[nH]2)cc1 | – | – | – | > 100 µM | – | > 100 µM | – | > 100 µM | – | > 100 µM | – | > 100 µM | – | > 100 µM | – | > 100 µM | – | > 100 | – | > 100 µM
CCOC(=O)C(C)(C)Oc1ccc2c(C)c(-c3ccc(Cl)cc3)c(=O)oc2c1 | – | > 100 µM | – | > 100 µM | – | > 100 µM | – | > 100 µM | – | > 100 µM | – | – | – | > 100 µM | – | > 100 µM | – | > 100 | – | > 100 µM
Nc1c(C(=O)Nc2cccc(Br)c2)sc2nc3c(cc12)C(=O)CCC3 | 0.189 µM | 8.33 µM | 0.5 µM | > 100 µM | 0.401 µM | – | 0.468 µM | > 100 µM | 0.14 µM | > 100 µM | 0.475 µM | > 100 µM | – | – | 0.486 µM | > 52.2 µM | 0.525 µM | > 100 | 0.516 µM | > 100 µM
C=CC(=O)N1CCC(C2CCNc3c(C(N)=O)c(-c4ccc(Oc5ccccc5)cc4)nn32)CC1 (configuration not stated) | 2.33 µM | 7.19 µM | 21.2 µM | > 100 µM | 19.1 µM | 40.2 µM | 14.9 µM | 46.3 µM | – | – | 16.4 µM | 61 µM | 20.3 µM | 40.4 µM | 8.31 µM | 38.6 µM | 10.4 µM | 46.8 | 10.6 µM | 27 µM
CCN(CC)CCOc1ccc(/C=C2\CC3C4CC=C5C[C@@H](O)CC[C@]5(C)C4CC[C@]3(C)C2=O)cc1OC (some centres not stated) | 2.84 µM | 9.84 µM | 11.6 µM | 26.1 µM | – | – | 2.27 µM | 6.19 µM | 3.09 µM | > 38.2 µM | 16.2 µM | 56.1 µM | 7.27 µM | 78.3 µM | 15.6 µM | 34.8 µM | 0.955 µM | 3.9 | 1.71 µM | 3.3 µM
CCOc1ccc2nc(S/C(=C/C=C(C#N)C#N)c3ccc(C)cc3)sc2c1 | 42.3 µM | > 100 µM | 46.7 µM | > 100 µM | 25.8 µM | > 100 µM | 12.2 µM | 28.8 µM | 5.28 µM | 55 µM | 24 µM | 50.7 µM | – | – | – | – | 2.92 µM | 7.43 | 22 µM | 54.1 µM
